Results reported in patent US20100298252A1, “METHODS AND COMPOSITIONS FOR OPHTHALMIC TREATMENT OF FUNGAL AND BACTERIAL INFECTIONS” (priority 2004, published 2010).

Tests used:
[1] = test system: Enterococcus faecalis; test: Antibiotic resistance profile by disc diffusion; assay type: cell-based; set-up: key: R = resistant; I = intermediate; S = sensitive; conditions: disc diffusion on MHA
Procedure: (§1) The organisms of this study were isolated from human burn patients. They included strains of methicillin resistant Staphylococcus aureus, and vancomycin resistant strains of Pseudomonas aeruginosa and Enterococcus faecalis. The bacterial isolates were propagated in or on Brain Heart Infusion broth (BHI), Mueller-Hinton Broth (MHB), blood agar (BA), Mueller-Hinton agar (MHA), enterococcus agar (EA), or 2× nutrient agar (2×NA).
(§2) Antibiotic resistance profiles were determined by the disc diffusion method on MHA (5).

[2] = test system: Pseudomonas aeruginosa; test: Antibiotic resistance profile by disc diffusion; assay type: cell-based; set-up: key: R = resistant; I = intermediate; S = sensitive; conditions: disc diffusion on MHA
Procedure: as §1, §2

[3] = test system: Staphylococcus aureus; test: Antibiotic resistance profile by disc diffusion; assay type: cell-based; set-up: key: R = resistant; I = intermediate; S = sensitive; conditions: disc diffusion on MHA
Procedure: as §1, §2

[4] = test system: Fusarium sp. 3; test: microbe, parasite or virus in culture; assay type: cell-based
[5] = test system: Penicillium sp.; test: Antifungal MIC 50 / MIC 90 alone and combined with Tricide; assay type: cell-based
[6] = test system: Aspergillus sp.; test: as above; assay type: cell-based; conditions: for % decrease MIC 50 / % decrease MIC 90 / MIC 50 combined with Tricide / MIC 90 combined with Tricide: Aspergillus sp.
[7] = test system: Curvularia sp.; test: as above; assay type: cell-based;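 further: antifungal MIC 50 and MIC 90 values against fungal isolates, with percent figures expressing how much the MIC fell once Tricide was added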
[8] = test system: Fusarium sp. 2; test: microbe, parasite or virus in culture; assay type: cell-based
[9] = test system: Fusarium sp. 1; test: microbe, parasite or virus in culture; assay type: cell-based;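 further: mean MIC 50 and MIC 90 values against fungal isolates, with percent decrease in MIC when the antifungal is combined with Tricide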
[10] = test system: Cladosporium sp.; test: Antifungal MIC 50 / MIC 90 alone and combined with Tricide; assay type: cell-based; conditions: antifungal alone
[11] = test system: Paecilomyces variotti ATCC 36257; test: as above; assay type: cell-based
[12] = test system: Candidia albicans ATCC 90028; test: as above; assay type: cell-based, Candida albicans;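 further: MIC 50 and MIC 90 values are means, and the percent decrease is the drop in MIC when the antifungal is combined with Tricide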
[13] = test system: Enterococcus faecalis; test: MIC and FIC index, microtiter checkerboard / broth dilution; assay type: cell-based; conditions: Ent. faecalis; antibiotic alone
Procedure: (§3) Agents and Chem. 210-217. (1967) and Sparks et al., Vet. Res. Comm. 18, 241-249 (1994), incorporated herein by reference in their entireties. […] Then 0.05 ml of an 18-hour old culture of a test organism, containing 10^6 colony-forming units (CFU)/ml, was added to each well. Controls for the culture and media were included in each plate. Plates were covered and incubated at 37° Celsius for 18-24 hours. […] To generate isobolograms, FICs of the two test solutions were plotted individually on the x-axis and y-axis to determine the effect of combining the two test solutions on bacterial growth. A line that curves away from, the zero point and the coordinates indicates antagonism. […] A numerical score or fractional inhibitory concentration (FIC) index was determined. The FIC index is equal to the sum of the values of FIC for the individual drugs: […] Am. Soc. Microbiol. Williams and Wilkins, Baltimore 1970), incorporated herein by reference in its entirety. […] Ps. aeruginosa, and Ent. faecalis.

[14] = test system: Pseudomonas aeruginosa; test: as above; assay type: cell-based; conditions: Ps. aeruginosa; antibiotic alone
Procedure: as §3

[15] = test system: Staphylococcus aureus; test: as above; assay type: cell-based; conditions: Staph. aureus; antibiotic alone
Procedure: as §3

[16] = Aspergillus, Aspergiullus sp., antifungal alone
[17] = Curvilaria sp., Tricide 200 ug/ml
[18] = Curvularia sp., antifungal alone
[19] = Fusarium sp. 1, Tricide 540 ug/ml
[20] = Fusarium sp. 1, antifungal alone
[21] = Paecilomyces variotti ATCC36257
[22] = Paecilomyces variotti, Tricide […]
[23] = Candida albicans, ATCC90028, Candidia albicans ATCC 90028, antifungal alone

Compound: CCn1cc(C(=O)O)c(=O)c2ccc(C)nc21 [NA, nalidixic acid]
- Antibiotic resistance profile [1]: R
- Antibiotic resistance profile [2]: R
- Antibiotic resistance profile [3]: R

Compound: C[C@@H]1C/C=C/C=C/C=C/C=C/[C@H](O[C@@H]2O[C@H](C)[C@@H](O)[C@H](N)[C@@H]2O)C[C@@H]2O[C@](O)(C[C@@H](O)C[C@H]3O[C@@H]3/C=C/C(=O)O1)C[C@H](O)[C@H]2C(=O)O [Natamycin, natamycin]
- Summary % reduction in MIC 50 using Tricide [4]: 100%
- Summary % reduction in MIC 90 using Tricide [4]: 100%
- % decrease MIC 50 ([4]; Tricide 540 ug/ml): 100%
- % decrease MIC 90 ([4]; Tricide 540 ug/ml): 100%
- MIC 50 combined with Tricide ([4]; Tricide 540 ug/ml): 0 µg/mL
- MIC 90 combined with Tricide ([4]; Tricide 540 ug/ml): 0 µg/mL
- MIC50 ([4]; antifungal alone): > 19.2 µg/mL
- MIC90 ([4]; antifungal alone): > 19.2 µg/mL
- Summary % reduction in MIC 50 using Tricide [5]: 100%
- Summary % reduction in MIC 90 using Tricide [5]: 100%
- % decrease MIC 50 ([5]; Tricide 200 ug/ml): 100%
- % decrease MIC 90 ([5]; Tricide 200 ug/ml): 100%
- MIC 50 combined with Tricide ([5]; Tricide 200 ug/ml): 0 µg/mL
- MIC 90 combined with Tricide ([5]; Tricide 200 ug/ml): 0 µg/mL
- MIC50 ([5]; antifungal alone): 9.6 µg/mL
- MIC90 ([5]; antifungal alone): 19.2 µg/mL
- % decrease MIC 50 ([6]; Tricide 200 ug/ml): 93.8%
- % decrease MIC 90 ([6]; Tricide 200 ug/ml): 0%
- MIC 50 combined with Tricide ([6]; Tricide 200 ug/ml): 1.2 µg/mL
- MIC 90 combined with Tricide ([6]; Tricide 200 ug/ml): >19.2 µg/mL
- % decrease MIC 50 ([6]; Tricide 400 ug/ml): 100%
- % decrease MIC 90 ([6]; Tricide 400 ug/ml): 100%
- MIC 50 combined with Tricide ([6]; Tricide 400 ug/ml): 0 µg/mL
- MIC 90 combined with Tricide ([6]; Tricide 400 ug/ml): 0 µg/mL
- MIC50 [6, 16]: > 19.2 µg/mL
- MIC90 [6, 16]: 19.2 µg/mL
- Summary % reduction in MIC 50 using Tricide ([6]; Aspergiullus sp.): 100%
- Summary % reduction in MIC 90 using Tricide ([6]; Aspergiullus sp.): 100%
- % decrease MIC 50 [7, 17]: 100%
- % decrease MIC 90 [7, 17]: 100%
- MIC 50 combined with Tricide [7, 17]: 0 µg/mL
- Summary % reduction in MIC 50 using Tricide ([7]; Curvularia sp.): 100%
- Summary % reduction in MIC 90 using Tricide ([7]; Curvularia sp.): 100%
- MIC50 [7, 18]: 9.6 µg/mL
- MIC90 [7, 18]: 19.2 µg/mL
- Summary % reduction in MIC 50 using Tricide [8]: 100%
- Summary % reduction in MIC 90 using Tricide [8]: >99%-100%
- % decrease MIC 50 ([8]; Tricide 540 ug/ml): 100%
- % decrease MIC 90 ([8]; Tricide 540 ug/ml): >99-100% ^
- MIC 50 combined with Tricide ([8]; Tricide 540 ug/ml): 0 µg/mL
- MIC 90 combined with Tricide ([8]; Tricide 540 ug/ml): 0 to 1.92 µg/mL
- MIC50 ([8]; antifungal alone): > 19.2 µg/mL
- MIC90 ([8]; antifungal alone): > 19.2 µg/mL
- Summary % reduction in MIC 50 using Tricide ([9]; Fasarium sp. 1): 100%
- Summary % reduction in MIC 90 using Tricide ([9]; Fasarium sp. 1): 100%
- % decrease MIC 50 [9, 19]: 100%
- % decrease MIC 90 [9, 19]: 100%
- MIC 50 combined with Tricide [9, 19]: 0 µg/mL
- MIC 90 combined with Tricide [9, 19]: 0 µg/mL
- MIC50 [9, 20]: > 19.2 µg/mL
- MIC90 [9, 20]: > 19.2 µg/mL
- MIC50 [10]: > 19.2 µg/mL
- MIC90 [10]: > 19.2 µg/mL
- MIC50 ([11]; ATCC36257, Paecilomyces variotti ATCC 36257, antifungal alone, read-out: MIC 50): 2.4 to 4.8 µg/mL
- MIC90 ([11]; ATCC36257, Paecilomyces variotti ATCC 36257, antifungal alone, read-out: MIC 90): 9.6 µg/mL
- Summary % reduction in MIC 50 using Tricide [11, 21]: 75-87.5%^
- Summary % reduction in MIC 90 using Tricide [11, 21]: 50%
- % decrease MIC 50 [11, 22]: 75%-87.5%
- % decrease MIC 90 [11, 22]: 50%
- MIC 50 combined with Tricide [11, 22]: 0.6 µg/mL
- MIC 90 combined with Tricide [11, 22]: 4.8 µg/mL
- MIC50 [12, 23]: > 14.4 µg/mL
- MIC90 [12, 23]: > 19.2 µg/mL
- % decrease MIC 50 ([12]; Candida albicans, Tricide […]): 99.3%
- % decrease MIC 90 ([12]; Candida albicans, Tricide […]): 90%
- MIC 50 combined with Tricide ([12]; Candida albicans, Tricide […]): ≦0.10 ug/ml
- MIC 90 combined with Tricide ([12]; Candida albicans, Tricide […]): 4.92 µg/mL
- Summary % reduction in MIC 50 using Tricide ([12]; Candidia albicans ATCC 90028): 99.3%
- Summary % reduction in MIC 90 using Tricide ([12]; Candidia albicans ATCC 90028): 90%

Compound: CN(C)[C@@H]1C(O)=C(C(N)=O)C(=O)[C@@]2(O)C(O)=C3C(=O)c4c(O)cccc4[C@@](C)(O)[C@H]3[C@H](O)[C@@H]12 [Oxytetracycline, oxytetracycline]
- MIC Individually Administered, antibiotic [13]: 50 µg/mL
- MIC Individually Administered, antibiotic [14]: 3 µg/mL
- MIC Individually Administered, antibiotic [15]: 0.1 µg/mL

Compound: [H]/N=C(/N)N[C@H]1[C@H](O)[C@@H](O)[C@H](O[C@@H]2O[C@@H](C)[C@](O)(C=O)[C@H]2O[C@@H]2O[C@@H](CO)[C@H](O)[C@@H](O)[C@@H]2NC)[C@@H](N/C(N)=N\[H])[C@@H]1O [S, streptomycin]
- Antibiotic resistance profile [1]: R
- Antibiotic resistance profile [2]: R
- Antibiotic resistance profile [3]: S

Compound: CN(C)[C@@H]1C(O)=C(C(N)=O)C(=O)[C@@]2(O)C(O)=C3C(=O)c4c(O)cccc4[C@@](C)(O)[C@H]3C[C@@H]12 [Te, tetracycline]
- Antibiotic resistance profile [1]: R
- Antibiotic resistance profile [2]: R
- Antibiotic resistance profile [3]: S

Compound: CN[C@H](CC(C)C)C(=O)N[C@H]1C(=O)N[C@@H](CC(N)=O)C(=O)N[C@H]2C(=O)N[C@H]3C(=O)N[C@H](C(=O)N[C@H](C(=O)O)c4cc(O)cc(O)c4-c4cc3ccc4O)[C@H](O)c3ccc(c(Cl)c3)Oc3cc2cc(c3O[C@@H]2O[C@H](CO)[C@@H](O)[C@H](O)[C@H]2O[C@H]2C[C@](C)(N)[C@H](O)[C@H](C)O2)Oc2ccc(cc2Cl)[C@H]1O [Va, vancomycin]
- Antibiotic resistance profile [1]: R
- Antibiotic resistance profile [2]: R
- Antibiotic resistance profile [3]: S

Compound: gentamicin [Gm]
- Antibiotic resistance profile [1]: R
- Antibiotic resistance profile [2]: I
- Antibiotic resistance profile [3]: S
